Experimental data as given in US20210046071A1, “TETRACYCLIC COMPOUNDS AND THEIR SALTS, COMPOSITIONS, AND METHODS FOR THEIR USE” (Senhwa Biosciences, Inc., priority 2019, published 2021).

Tests used:
MDA-MB-453 = test: Alamar Blue cell viability assay, MDA-MB-453; format: cell-based; conditions: Homo sapiens; MDA-MB-453, Breast
Method: (§1) The effect of Compound I on cell viability was assessed by Alamar Blue assay of metabolic activity in various cancer cell lines.

solid malignancy = test: Dose escalation study in patients, best response / tumor shrinkage; format: in vivo, human
Method: Pharmacokinetic studies and dose escalation studies were conducted in adult patients with metastatic, recurrent, locally, advanced, or unresectable solid malignancy (patients with histologically and/or cytologically confirmed solid malignancy), who received prior anti-cancer treatment(s) until disease progression, at 10 different dose levels of Compound I. Groups 1-7 were administered intravenously on days 1 and 8 of a 4-week cycle at 50, 100, 150, 200, 250, 325, and 475 mg/m^2 (lyophilized formulation), respectively. Groups 8-10 were administered intravenously on days 1,8, and 15 of a 4-week cycle at 325, 475, and 650 mg/m^2 (lyophilized formulation), respectively. Each patient received each dose over 1 hour by IV infusion on days described above.
The duration on therapy at each dose level for evaluable patients is depicted in FIG. 8.
In the study described in Example 3, 18 patients were diagnosed with metastatic breast cancer. […] This study was conducted to evaluate predictive biomarkers of response to Compound I and to explore the relationship between germline HRD aberrations and outcomes of Compound I treatments.
In the study described in Example 3, 12 patients harbored BRCA1 or BRCA2 mutation. From the same group of 12 patients harboring BRCA1 or BRCA2 mutation, 8 patients had breast cancer (FIG. 5). Of the 8 patients, 6 patient harbored BRCA2 mutation and had breast cancer (FIG. 6). In FIGS. 4-6, each bar represents an individual in a treatment Group as indicated by the Group number corresponding to the treatment Groups in Example 3.

HL60 = test: Alamar Blue cell viability assay, HL60; format: cell-based; conditions: Homo sapiens, HL-60; HL60, Leukemia
Method: as §1

MV 4; 11 = test: Alamar Blue cell viability assay, MV 4; 11; format: cell-based; conditions: Homo sapiens, MV4-11, 11, Leukemia
Method: as §1

THP-1 = test: Alamar Blue cell viability assay, THP-1; format: cell-based; conditions: Homo sapiens; THP-1, Leukemia
Method: as §1

COLO-205 = test: Alamar Blue cell viability assay, COLO-205; format: cell-based; conditions: Homo sapiens; COLO-205, Colon
Method: as §1

MOLT-3 = test: Alamar Blue cell viability assay, MOLT-3; format: cell-based; conditions: Homo sapiens; MOLT-3, Leukemia
Method: as §1

BRCA12 deficient cells = test: Toxicity against BRCA12 deficient cells; format: cell-based; conditions: cell lines of different genetic backgrounds (colon, breast and ovary), mouse and human
PC-3 = test: Alamar Blue cell viability assay, PC-3; format: cell-based; conditions: Homo sapiens; PC-3, Prostate
Method: as §1

MDA-MB-231 = test: Alamar Blue cell viability assay, MDA-MB-231; format: cell-based; conditions: Homo sapiens; MDA-MB-231, Breast
Method: as §1

CCD-1096Sk = test: Alamar Blue cell viability assay, CCD-1096Sk; format: cell-based; conditions: Normal
Method: as §1

A375 = test: Alamar Blue cell viability assay, A375; format: cell-based; conditions: Homo sapiens, A-375; A375, Melanoma
Method: as §1

Saos-2 = test: Alamar Blue cell viability assay, Saos-2; format: cell-based; conditions: Homo sapiens; Saos-2, Osteosarcoma
Method: as §1

CCD-1058Sk = test: Alamar Blue cell viability assay, CCD-1058Sk; format: cell-based; conditions: Normal
Method: as §1

CCD-1094Sk = test: Alamar Blue cell viability assay, CCD-1094Sk; format: cell-based; conditions: Normal
Method: as §1

Jurkat = test: Alamar Blue cell viability assay, Jurkat; format: cell-based; conditions: Homo sapiens, Leukemia
Method: as §1

SR = test: Alamar Blue cell viability assay, SR; format: cell-based; conditions: Homo sapiens, Leukemia
Method: as §1

A7 = test: Alamar Blue cell viability assay, A7; format: cell-based; conditions: A7, Melanoma
Method: as §1

BT-474 = test: Alamar Blue cell viability assay, BT-474; format: cell-based; conditions: Homo sapiens; BT-474, Breast
Method: as §1

CCD-1068Sk = test: Alamar Blue cell viability assay, CCD-1068Sk; format: cell-based; conditions: Normal
Method: as §1

[1] = of the 40 patients treated, 34 discontinued

In the case of `Cc1cnc(CNC(=O)c2c(=O)c3ccc(N4CCCN(C)CC4)nc3n3c2sc2ccccc23)cn1` [Compound I, 2-(4-Methyl-[1,4]diazepan-1-yl)-5-oxo-5H-7-thia-1,11b-diaza-benzo[c]fluorene-6-carboxylic acid (5-methyl-pyrazin-2-ylmethyl)-amide], the EC50 (MDA-MB-453) is reported as 140 nM, the “Response of a patient who harbored a PALB2 mutation” value (solid malignancy; Group 10, 650 mg/m^2, CT scans, 6-month follow-up) is reported as “partial response (PR)” and the “Patients discontinued due to objective progressive disease” value (solid malignancy; [1]) is reported as 29. For the same compound, the “Patients discontinued due to symptomatic progression of disease” value (solid malignancy; [1]) was 4, the “Patients with stable disease as best response for >4 cycles” value (solid malignancy; of the 40 patients treated, 2 with breast cancer, 4 germline BRCA2, 2 somatic BRCA1/2) was 6 patients and the “Patients with confirmed partial response as best response” value (solid malignancy; of the 40 patients treated, 3 with breast cancer, 2 germline BRCA2, 1 germline BRCA2 VUS, germline PALB2) was 4 patients. For the same compound, the “Outcome in 8 patients who had received prior PARP inhibitor therapy” value (solid malignancy; only 2 of them had BRCA2 mutations) was “all had early progression after ≤2 cycles”, the “Dose at which patients with BRCA2 mutation responded, tumor shrinkage observed” value (solid malignancy; patients with BRCA2 mutation) was “greater than or equal to 150 mg/m^2” and the EC50 (HL60) was 83 nM. For the same compound, the EC50 (MV 4; 11) was 12 nM, the EC50 (THP-1) was 47 nM and the EC50 (COLO-205) was 96 nM. The EC50 (MOLT-3) was 6 nM, the “Toxicity against BRCA12 deficient cells” value (BRCA12 deficient cells) was “specific toxicity” and the EC50 (PC-3) was 1100 nM. The EC50 (MDA-MB-231) was 83 nM, the EC50 (CCD-1096Sk) was 5260 nM and the EC50 (A375) was 58 nM. It also gave an EC50 (Saos-2) of 5000 nM, an EC50 (CCD-1058Sk) of 4710 nM and an EC50 (CCD-1094Sk) of 4810 nM. For the same compound, the EC50 (Jurkat) was 64 nM, the EC50 (SR) was 5 nM and the EC50 (A7) was 23 nM. It also gave an EC50 (BT-474) of 86 nM and an EC50 (CCD-1068Sk) of 5070 nM.
